# Entries after “also recorded” stand apart in the source; their conditions may differ. Non-standard residues stand in square brackets, D forms with d. Residues, ends and D or L forms follow the SMILES beside them. Aib = CC(C)(N)C(=O)O
# Key:
# [1] = Pharmacokinetics in the rat brain: microdialysis of brain interstitial fluid (prefrontal cortex), HPLC-MS/MS; assay type: in vivo
# Experimental: FIG. 2 Represents a graphical illustration of compound (1)'s pharmacokinetics in the rat brain. Compound (1) was administered as subcutaneous (s.c.) injection at doses of 0.4 mg/kg (∇) and […] (O, Δ). A microdialysis probe has been placed in the prefrontal cortex of these adult male Sprague Dawley rats to measure the concentration of compound (1) in the brain interstitial fluid (ISF) using a HPLC system with MS/MS detector. The dialysate samples were collected at a flow rate of 0.10 μL/min with a carrier flow rate of 0.8 μL/min. The animals were either anesthetized or awake and freely moving. Microdialysis data over a period of 360 min are depicted on a linear scale as means of 4 measurements±SEM.
# The aim of this experiment was to evaluate the pharmacokinetics of compound (1) in the rat brain. Compound (1) was administered subcutaneously to anesthetized or awake and freely moving animals. A microdialysis probe has been placed in the prefrontal cortex of these adult male Sprague Dawley rats to measure the concentration of compound (1) in the brain interstitial fluid (ISF) using a HPLC system with MS/MS detector.
# Aβ1-42 oligomers = target: T1, Aβ1-42 oligomers (Homo sapiens, UniProt P05067); assay: In vitro LTP in hippocampal brain slices superfused with 50 nM Aβ1-42; design: species or system mice; settings: for effect on Aβ1-42 toxicity in in vitro LTP: 50 nM Aβ1-42; for Relative effect size (blocking Aβ1-42 toxicity): control LTP = 100%, Aβ1-42 alone = 0%
# T1 construct: host or cells: peptide added to the superfusion solution of hippocampal slices
# Experimental: FIGS. 4A-B. FIG. 4A Illustrates plots from in vitro LTP experiments using rat brain slices that were superfused at 23° C. with 50 nM Aβ1-42 and/or with 10 nM compound (1). The compound (1) solution was added for 90 min before HFS was delivered in the first input (dark grey circles). […] To ensure the validity of the Aβ1-42-mediated effect, interleaved experiments with Aβ1-42 (50 nM, closed circles, n=12) were additionally performed in separate slices. […] Representative field excitatory postsynaptic potentials ([…]) are shown on top. FIG. 4B Represents a graphical illustration of compound (1)'s dose-dependent effects on in vitro LTP in rat brain slices based on LTP experiments shown in FIG. 4A. Toxic Aβ1-42 oligomers formed from 50 nM amyloid beta Aβ1-42 monomers block the LTP response almost entirely (black column). […] This refutes the previous scientific status, which called for an excess of the detoxifying agent. Data are shown as means of 5 experiments (n=5)±standard deviations. For the long-term potentiation (LTP) experiments brain slices from 2 months old mice were used. Transverse hippocampal slices (350 μm thick) were obtained after decapitation under isoflurane-anesthesia. All slices were placed in a holding chamber for at least 60 min and were then transferred to a super fusing chamber for extracellular recordings. The flow rate of the solution through the chamber was 4 ml/min. […] All experiments were performed at room temperature. Aβ1-42 stock solution in DMSO was added to the bath solution to give a final concentration of 50 nM. Extracellular recordings of field excitatory postsynaptic potentials (fEPSPs) were obtained from the dendritic region of the CA1 region of the hippocampus using glass micropipettes filled with superfusion solution. For all recordings both stimulating electrodes were used to utilize the input specificity of LTP and thereby allow the measurement of an internal control within the same slice. Steady baseline recordings were made for at least 30 minutes before application of tetanic stimuli. For LTP induction, high-frequency stimulation (HFS) conditioning pulses (100 Hz/1 s; 4-5 V) were applied to the Schaffer collateral commissural pathway via two independent inputs. Before inducing LTP, Aβ1-42 has been applied for 90 min. HFS was delivered from one of the electrodes under conditions in the presence of Compound (1) and potentiation of the responses was monitored for at least 60 min after the tetanus. Either Aβ1-42 was then applied via the bath solution for 90 min before attempting to induce LTP in the second input following HFS delivered via the second electrode. Amplified fEPSPs were filtered (3 kHz), digitized (15 kHz), measured and plotted (FIG. 4A). Measurements of the slope of the fEPSP were taken between 20% and 80% of the peak amplitude. Slopes of fEPSPs were normalized with respect to the 20 min control period before tetanic stimulation. Compound (1) was used at various concentrations in these LTP experiments. […] FIG. 4B summarizes the effects of different compound (1) concentrations leading to different stoichiometric Aβ1-42/compound (1) ratios (10:1, 2:1, 1:5). The LTP signals (fEPSP potentiation) calculated as the average of the last 50-60 mins after HFS are presented as a bar diagram. […] The control experiment is defined as 100% normalized LTP response and the toxic effect of 50 nM Aβ1-42 oligomers is defined as 0% normalized LTP change. Using the usual stoichiometric excess for compound (1), namely 500 nM or 100 nM, leads to a weak detoxifying effect of 40.2% and 34.7%, respectively.
# T1 sequence (P05067 672-713 limits assumed): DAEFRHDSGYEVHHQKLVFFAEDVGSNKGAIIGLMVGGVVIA
structure (smiles),measurement,setting,value
"CC(C)(NC(=O)[C@H](N)Cc1c[nH]c2ccccc12)C(N)=O [compound (1), (2R)-2-amino-N-(1-carbamomyl-1-methlyethyl)-3-(1H-indol-3-yl) propanamide] (H-[dW]-[Aib]-NH2)",peak brain concentration (extracellular space of the brain),[1]; s.c. 0.4 mg/kg,10 nM
same,brain concentration (brain ISF),[1]; s.c. 2 mg/kg,ca. 60 nM
same,effect on Aβ1-42 toxicity in in vitro LTP,Aβ1-42 oligomers; 10 nM compound (1),best prevented the detrimental effect of 50 nM Aβ1-42 on hippocampal LTP; also recorded: able to prevent LTP blockade; also recorded: blocks Aβ1-42 toxicity almost completely
same,Relative effect size (blocking Aβ1-42 toxicity),"Aβ1-42 oligomers; 10 nM compound (1), 50 nM Aβ1-42, ratio 1:5",88.1%
same,LTP induction in presence of compound alone,"Aβ1-42 oligomers; 10 nM compound (1), 90 min before HFS, no Aβ1-42",allowed the induction of LTP
same,effect on Aβ1-42 toxicity in in vitro LTP,Aβ1-42 oligomers; 100 nM compound (1),only partially alleviate the toxic effect of Aβ1-42
same,Relative effect size (blocking Aβ1-42 toxicity),"Aβ1-42 oligomers; 100 nM compound (1), 50 nM Aβ1-42, ratio 2:1",34.7%
same,Relative effect size (blocking Aβ1-42 toxicity),"Aβ1-42 oligomers; 100 nM compound (1), 50 nM Aβ1-42, ratio 2:1, listed as Compound (1)",34.7%
same,effect on Aβ1-42 toxicity in in vitro LTP,Aβ1-42 oligomers; 500 nM compound (1),only partially alleviate the toxic effect of Aβ1-42
same,Relative effect size (blocking Aβ1-42 toxicity),"Aβ1-42 oligomers; 500 nM compound (1), 50 nM Aβ1-42, ratio 10:1",40.2%
same,Relative effect size (blocking Aβ1-42 toxicity),"Aβ1-42 oligomers; 500 nM compound (1), 50 nM Aβ1-42, ratio 10:1, listed as Compound (1)",40.2%
same,detoxifying effect in undersupply compared to stoichiometric excess,"Aβ1-42 oligomers; 10-fold undersupply (ratio 1:10) as worded, refers to Table 1",more than double as strong
same,molecules of Aβ1-42 detoxified by 1 molecule of compound (1),Aβ1-42 oligomers; efficacy at 10 nM vs 50 nM Aβ1-42,5

# — patent US20250275944A1, “RELATIVE UNDERSUPPLY OF AN AMYLOID BETA AGGREGATION INHIBITOR FOR IMPROVED DETOXIFYING EFFECTS” (Galimedix Therapeutics Inc, priority 2022, published 2025)
